pEC50, pKd: −log10 of the molar value. Where two headings read alike, the source gives them in different places. Marks after values point to notes of the source that are not given here.
Key:
hMOR [1] = biological target: T1, hMOR (Homo sapiens, UniProt P35372); assay: biochemical; format: binding
hKOR [2] = biological target: T2, hKOR (Homo sapiens, UniProt P41145); assay: biochemical; format: binding
hKOR [3] = biological target: T2, hKOR; assay: biochemical; format: biochemical
hMOR [4] = biological target: T1, hMOR; assay: GTPγS functional assay, MOR; format: biochemical
male C57BL/6NHsd mice [5] = settings: mouse, in vivo
hDOR [6] = biological target: T3, hDOR (Homo sapiens, UniProt P41143); assay: GTPγS functional assay, DOR; format: biochemical
male C57BL/6NHsd mice [7] = settings: mouse, in vivo; remark: listed apart in the source
male C57BL/6NHsd mice [8] = settings: mouse, in vivo; remark: listed apart in the source
hDOR [9] = biological target: T3, hDOR; assay: Competitive radioligand binding assay, DOR

T1 sequence (P35372 whole entry): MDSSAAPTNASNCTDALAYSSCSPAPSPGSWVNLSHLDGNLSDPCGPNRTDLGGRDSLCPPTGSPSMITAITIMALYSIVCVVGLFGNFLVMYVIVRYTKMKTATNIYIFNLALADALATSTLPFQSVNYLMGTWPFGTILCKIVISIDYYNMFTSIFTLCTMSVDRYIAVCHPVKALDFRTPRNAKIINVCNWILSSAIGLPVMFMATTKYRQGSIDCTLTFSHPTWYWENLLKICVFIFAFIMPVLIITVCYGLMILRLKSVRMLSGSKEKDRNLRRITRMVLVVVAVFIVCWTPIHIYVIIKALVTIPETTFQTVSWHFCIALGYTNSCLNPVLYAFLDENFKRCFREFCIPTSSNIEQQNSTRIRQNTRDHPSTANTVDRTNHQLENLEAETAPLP
T2 sequence (P41145 whole entry): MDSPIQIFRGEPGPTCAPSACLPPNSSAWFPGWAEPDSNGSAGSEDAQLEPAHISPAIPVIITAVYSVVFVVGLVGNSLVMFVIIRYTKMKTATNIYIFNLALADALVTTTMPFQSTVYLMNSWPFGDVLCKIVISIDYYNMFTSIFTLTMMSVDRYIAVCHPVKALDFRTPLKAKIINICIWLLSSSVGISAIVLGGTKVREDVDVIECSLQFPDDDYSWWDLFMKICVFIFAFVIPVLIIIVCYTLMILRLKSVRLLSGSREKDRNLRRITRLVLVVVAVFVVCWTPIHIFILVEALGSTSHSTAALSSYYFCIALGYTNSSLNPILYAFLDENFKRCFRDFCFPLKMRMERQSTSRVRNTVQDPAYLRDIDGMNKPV
T3 sequence (P41143 whole entry): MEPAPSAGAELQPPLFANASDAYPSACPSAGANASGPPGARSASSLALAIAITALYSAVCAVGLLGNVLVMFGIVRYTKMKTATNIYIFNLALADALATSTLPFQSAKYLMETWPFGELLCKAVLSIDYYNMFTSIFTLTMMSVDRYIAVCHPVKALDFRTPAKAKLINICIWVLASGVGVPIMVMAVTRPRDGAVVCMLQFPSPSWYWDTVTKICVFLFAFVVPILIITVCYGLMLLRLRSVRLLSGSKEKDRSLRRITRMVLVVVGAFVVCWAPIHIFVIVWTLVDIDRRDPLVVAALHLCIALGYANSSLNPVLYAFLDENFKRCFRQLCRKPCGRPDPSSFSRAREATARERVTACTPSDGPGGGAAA

Structure (SMILES) | pKd (hMOR [1]) | pKd (hKOR [2]) | pEC50 (hKOR [3]) | Full or partial agonist (KOR) (hKOR [3]) | pEC50 (hMOR [4]) | other results
COC(=O)[C@@H]1C[C@H](OC(=O)C2=CCc3ccccc32)C(=O)[C@H]2[C@@]1(C)CC[C@H]1C(=O)O[C@H](c3ccoc3)C[C@]21C [Compound 1, Methyl-(2S,4aR,6aR,7R,9S,10aS,10bR)-9-((1H-indene-3-carbonyl)oxy)-2-(furan-3-yl)-6a,10b-dimethyl-4,10-dioxododecahydro-2H-benzo[f]isochromene-7-carboxylate] | 6.27 | 7.21 | 5.80 | 1570 (548–4500)^[c] | < 5.00 | –
COC(=O)[C@@H]1C[C@H](OC(=O)C2=Cc3ccccc3C2)C(=O)[C@H]2[C@@]1(C)CC[C@H]1C(=O)O[C@H](c3ccoc3)C[C@]21C [Compound 2, Methyl-(2S,4aR,6aR,7R,9S,10aS,10bR)-9-((1H-indene-2-carbonyl)oxy)-2-(furan-3-yl)-6a,10b-dimethyl-4,10-dioxododecahydro-2H-benzo[f]isochromene-7-carboxylate] | 6.27 | 7.30 | – | 853 (456–1600)^[d] | – | distance traveled in the maze compared to vehicle (male C57BL/6NHsd mice [5]; male, C57BL/6NHsd): neither salvinorin A, nor compound 2, altered the distance; time spent in the open arms compared to vehicle (male C57BL/6NHsd mice [5]): significantly increased the amount of time spent on the open arms of the maze; pEC50 (hDOR [6]): 5.63; latency to hind paw lick or flutter compared to vehicle (male C57BL/6NHsd mice [7]): significant increase in the latency to paw response; fold preference towards KOR (binding affinity, KOR vs MOR) (hKOR [2]): 11 fold; latency to tail withdrawal compared to vehicle (male C57BL/6NHsd mice [8]): Neither salvinorin A, herkinorin, nor compounds 2 or 10 demonstrated significant antinociception; pKd (hDOR [9]): 6.15; fold higher potency at MOR (vs KOR) (hMOR [4]; from GTPγS EC50 values): 17 fold
COC(=O)[C@@H]1C[C@H](OC(=O)C2Cc3ccccc3C2)C(=O)[C@H]2[C@@]1(C)CC[C@H]1C(=O)O[C@H](c3ccoc3)C[C@]21C [Compound 3, Methyl-(2S,4aR,6aR,7R,9S,10aS,10bR)-9-((2,3-dihydro-1H-indene-2-carbonyl)oxy)-2-(furan-3-yl)-6a,10b-dimethyl-4,10-dioxododecahydro-2H-benzo[f]isochromene-7-carboxylate] | 5.52 | 5.90 | 5.52 | 3000 (409–22000)^[d] | < 5.00 | –
COC(=O)[C@@H]1C[C@H](OC(=O)c2nc3ccccc3o2)C(=O)[C@H]2[C@@]1(C)CC[C@H]1C(=O)O[C@H](c3ccoc3)C[C@]21C [Compound 4, (2S,4aR,6aR,7R,9S,10aS,10bR)-2-(furan-3-yl)-7-(methoxycarbonyl)-6a,10b-dimethyl-4,10-dioxododecahydro-2H-benzo[f]isochromen-9-yl benzo[d]oxazole-2-carboxylate] | – | – | – | – | – | binding affinity towards MOR, in words (hMOR [1]): exhibited no affinity to any of the opioid receptors; binding affinity towards KOR, in words (hKOR [2]): exhibited no affinity to any of the opioid receptors; binding affinity towards DOR, in words (hDOR [9]): exhibited no affinity to any of the opioid receptors
COC(=O)[C@@H]1C[C@H](OC(=O)c2n[nH]c3ccccc23)C(=O)[C@H]2[C@@]1(C)CC[C@H]1C(=O)O[C@H](c3ccoc3)C[C@]21C [Compound 5, (2S,4aR,6aR,7R,9S,10aS,10bR)-2-(furan-3-yl)-7-(methoxycarbonyl)-6a,10b-dimethyl-4,10-dioxododecahydro-2H-benzo[f]isochromen-9-yl 1H-indazole-3-carboxylate] | 6.68 | – | – | – | < 5.00 | –
COC(=O)[C@@H]1C[C@H](OC(=O)c2nc3ccccc3[nH]2)C(=O)[C@H]2[C@@]1(C)CC[C@H]1C(=O)O[C@H](c3ccoc3)C[C@]21C [Compound 6, (2S,4aR,6aR,7R,9S,10aS,10bR)-2-(furan-3-yl)-7-(methoxycarbonyl)-6a,10b-dimethyl-4,10-dioxododecahydro-2H-benzo[f]isochromen-9-yl 1H-benzo[d]imidazole-2-carboxylate] | 7.08 | – | – | – | < 5.00 | binding affinity towards MOR, in words (hMOR [1]): exhibited selective affinity towards MOR
COC(=O)[C@@H]1C[C@H](OC(=O)c2cc3c(F)cccc3[nH]2)C(=O)[C@H]2[C@@]1(C)CC[C@H]1C(=O)O[C@H](c3ccoc3)C[C@]21C [Compound 7, (2S,4aR,6aR,7R,9S,10aS,10bR)-2-(furan-3-yl)-7-(methoxycarbonyl)-6a,10b-dimethyl-4,10-dioxododecahydro-2H-benzo[f]isochromen-9-yl 4-fluoro-1H-indole-2-carboxylate] | 7.88 | 7.24 | 6.06 | 877 (564–1360)^[d] | 6.68 | –
COC(=O)[C@@H]1C[C@H](OC(=O)c2cc3cc(F)ccc3[nH]2)C(=O)[C@H]2[C@@]1(C)CC[C@H]1C(=O)O[C@H](c3ccoc3)C[C@]21C [Compound 8, (2S,4aR,6aR,7R,9S,10aS,10bR)-2-(furan-3-yl)-7-(methoxycarbonyl)-6a,10b-dimethyl-4,10-dioxododecahydro-2H-benzo[f]isochromen-9-yl 5-fluoro-1H-indole-2-carboxylate] | – | 7.01 | 5.95 | 1110 (441–2790)^[c] | – | binding affinity towards MOR, in words (hMOR [1]): loss of binding affinity to MOR
COC(=O)[C@@H]1C[C@H](OC(=O)c2cc3ccc(F)cc3[nH]2)C(=O)[C@H]2[C@@]1(C)CC[C@H]1C(=O)O[C@H](c3ccoc3)C[C@]21C [Compound 9, (2S,4aR,6aR,7R,9S,10aS,10bR)-2-(furan-3-yl)-7-(methoxycarbonyl)-6a,10b-dimethyl-4,10-dioxododecahydro-2H-benzo[f]isochromen-9-yl 6-fluoro-1H-indole-2-carboxylate] | 7.40 | 7.77 | 6.38 | 419 (240–729)^[c] | 6.01 | –
COC(=O)[C@@H]1C[C@H](OC(=O)c2cc3cccc(F)c3[nH]2)C(=O)[C@H]2[C@@]1(C)CC[C@H]1C(=O)O[C@H](c3ccoc3)C[C@]21C [Compound 10, (2S,4aR,6aR,7R,9S,10aS,10bR)-2-(furan-3-yl)-7-(methoxycarbonyl)-6a,10b-dimethyl-4,10-dioxododecahydro-2H-benzo[f]isochromen-9-yl 7-fluoro-1H-indole-2-carboxylate] | 7.23 | 7.27 | 7.44 | 36.5 (13.6–98.2)^[d] | 6.88 | distance traveled in the maze compared to vehicle (male C57BL/6NHsd mice [5]): reduction in the total distance traveled; time spent in the open arms compared to vehicle (male C57BL/6NHsd mice [5]): Neither herkinorin nor compound 10 significantly influenced anxiety-like behavior; latency to hind paw lick or flutter compared to vehicle (male C57BL/6NHsd mice [7]): Neither salivinorin A, herkinorin, nor compound 10 were observed to significantly influence the latency to paw response; fold preference towards KOR (binding affinity, KOR vs MOR) (hKOR [2]): equal binding affinity towards KOR and MOR; fold higher potency at KOR (vs MOR) (hKOR [3]): ~ 4 fold; latency to tail withdrawal compared to vehicle (male C57BL/6NHsd mice [8]): Neither salvinorin A, herkinorin, nor compounds 2 or 10 demonstrated significant antinociception
COC(=O)[C@@H]1C[C@H](OC(=O)c2nc3ccccc3s2)C(=O)[C@H]2[C@@]1(C)CC[C@H]1C(=O)O[C@H](c3ccoc3)C[C@]21C [Compound 11, (2S,4aR,6aR,7R,9S,10aS,10bR)-2-(furan-3-yl)-7-(methoxycarbonyl)-6a,10b-dimethyl-4,10-dioxododecahydro-2H-benzo[f]isochromen-9-yl benzo[d]thiazole-2-carboxylate] | – | 7.04 | 6.53 | 294 (179–482)^[d] | – | binding affinity towards KOR, in words (hKOR [2]): exhibited selective affinity towards KOR
COC(=O)[C@@H]1C[C@H](OC(=O)c2cc3ccccn3c2)C(=O)[C@H]2[C@@]1(C)CC[C@H]1C(=O)O[C@H](c3ccoc3)C[C@]21C [Compound 12, (2S,4aR,6aR,7R,9S,10aS,10bR)-2-(furan-3-yl)-7-(methoxycarbonyl)-6a,10b-dimethyl-4,10-dioxododecahydro-2H-benzo[f]isochromen-9-yl indolizine-2-carboxylate] | 5.86 | 7.74 | 5.81 | 1560 (213–11500)^[c] | 6.70 | pEC50 (hDOR [6]): 6.13; pKd (hDOR [9]): 6.32
COC(=O)[C@@H]1C[C@H](OC(=O)[C@H]2Cc3ccccc3N2)C(=O)[C@H]2[C@@]1(C)CC[C@H]1C(=O)O[C@H](c3ccoc3)C[C@]21C [Compound 13, (2S,4aR,6aR,7R,9S,10aS,10bR)-2-(furan-3-yl)-7-(methoxycarbonyl)-6a,10b-dimethyl-4,10-dioxododecahydro-2H-benzo[f]isochromen-9-yl (R)-indoline-2-carboxylate] | 8.04 | 6.89 | 5.65 | 2260 (1360–3760)^[c] | 6.08 | fold preference towards MOR (binding affinity, MOR vs KOR) (hMOR [1]): 14 fold
COC(=O)[C@@H]1C[C@H](OC(=O)[C@@H]2Cc3ccccc3N2)C(=O)[C@H]2[C@@]1(C)CC[C@H]1C(=O)O[C@H](c3ccoc3)C[C@]21C [Compound 14, (2S,4aR,6aR,7R,9S,10aS,10bR)-2-(furan-3-yl)-7-(methoxycarbonyl)-6a,10b-dimethyl-4,10-dioxododecahydro-2H-benzo[f]isochromen-9-yl (S)-indoline-2-carboxylate] | 7.11 | 7.49 | 6.44 | 361 (216–602)^[d] | < 5.00 | fold preference towards KOR (binding affinity, KOR vs MOR) (hKOR [2]): ~ 2 fold
CN1CC[C@]23c4c5ccc(O)c4O[C@H]2[C@@H](O)C=C[C@H]3[C@H]1C5 [Morphine, reference compound] | – | – | – | – | – | latency to hind paw lick or flutter compared to vehicle (male C57BL/6NHsd mice [7]): significant increase in the latency to paw response; latency to tail withdrawal compared to vehicle (male C57BL/6NHsd mice [8]): significantly increased the latency to tail withdrawal

Reference: article PMC9015904 (ChemMedChem, 2022)
